Target: PLK1 (human) (UniProt P53350)
Assay: radiometric filter-binding kinase assay

PLK1 (human), sequence (P53350 whole entry, looked up): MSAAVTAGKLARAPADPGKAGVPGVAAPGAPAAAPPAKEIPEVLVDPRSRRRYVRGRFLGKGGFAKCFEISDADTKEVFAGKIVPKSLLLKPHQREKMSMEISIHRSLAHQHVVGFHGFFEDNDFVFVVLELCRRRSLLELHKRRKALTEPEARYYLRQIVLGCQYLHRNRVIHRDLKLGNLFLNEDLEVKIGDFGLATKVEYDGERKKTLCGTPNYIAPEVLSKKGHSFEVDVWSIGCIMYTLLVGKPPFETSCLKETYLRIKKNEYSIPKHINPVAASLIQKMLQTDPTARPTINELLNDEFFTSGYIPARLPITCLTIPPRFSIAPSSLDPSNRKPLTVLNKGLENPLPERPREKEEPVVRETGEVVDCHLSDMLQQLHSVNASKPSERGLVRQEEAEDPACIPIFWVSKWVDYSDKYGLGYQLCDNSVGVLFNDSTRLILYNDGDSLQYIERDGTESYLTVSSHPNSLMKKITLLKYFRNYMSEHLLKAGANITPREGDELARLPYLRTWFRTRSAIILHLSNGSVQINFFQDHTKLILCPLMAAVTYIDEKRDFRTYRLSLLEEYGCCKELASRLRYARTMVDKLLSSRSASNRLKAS

Compound	residual activity (compound 1.0 µM) [%]	residual activity (compound 10.0 µM) [%]	residual activity (compound 0.001 µM) [%]	residual activity (compound 0.01 µM) [%]	residual activity (compound 0.1 µM) [%]	residual activity (compound 5.0 µM) [%]
CN1C(=O)[C@@H](Cc2c[nH]c3ccccc23)NC1=S	81	88				
NS(=O)(=O)OC[C@@H]1C[C@@H](n2ccc3c(N[C@H]4CCc5ccccc54)ncnc32)C[C@@H]1O	93	95				
C/C(=C1/C(=O)Nc2ccc(NC(N)=O)cc21)c1ccc[nH]1			86	82	72	
O=C(Nc1ccccc1-c1cn2c(CN3CCNCC3)csc2n1)c1cnc2ccccc2n1	94	104			84	
Cc1ccc2c(c1)C(=O)[C@@]1(O)CCN(c3ccccc3)C1=N2		99				
COc1cc2ncn(-c3cc(OCc4ccccc4S(C)(=O)=O)c(C#N)s3)c2cc1OC	65	55				
Cc1ccc(Sc2cnc(Nc3cccc(Br)n3)s2)cc1C(=O)N1CCN(C(=O)CN)CC1	85	114			97	
O=C1Nc2nc(-c3c(O)cccc3OCC3CC3)cc(C3CCCNC3)c2CO1 (stereo not given)	83	87				
O=C(O)c1cc(N=Nc2ccc(S(=O)(=O)Nc3ccccn3)cc2)ccc1O	106	102				
NC(=O)Nc1ccc2c(c1)/C(=C/c1cc(-c3cccnc3)c[nH]1)C(=O)N2	42	18			86	
Oc1ccc2ccccc2c1SSc1c(O)ccc2ccccc12	90	9				12
NC(=O)c1cc2c(-c3cccc(-c4ccccc4)c3)cnc(N)c2s1	98	97			108	
C[C@H]1CCCC(=O)CCC/C=C/c2cc(O)cc(O)c2C(=O)O1	76	63				
Cc1cc(SCc2sc(-c3ccc(C(F)(F)F)cc3)nc2C)ccc1OCC(=O)O	75	60				
FC(F)(F)c1ccc(-c2ccc(Oc3cncc4sc(-c5nn[nH]n5)cc34)cc2)cc1	83	16				
CCc1cncnc1N1CCN(Cc2nc3cc(C(F)(F)F)ccc3[nH]2)CC1	87	88			98	

Continued, values first:

residual activity (compound 1.0 µM) [%]	residual activity (compound 10.0 µM) [%]	residual activity (compound 0.001 µM) [%]	residual activity (compound 0.01 µM) [%]	residual activity (compound 0.1 µM) [%]	residual activity (compound 5.0 µM) [%]	Compound
107	23					O=c1c(O)c(-c2ccc(O)c(O)c2)oc2cc(O)c(O)c(O)c12
90	24					NC(=O)c1ccc(-c2ccc(Oc3cncc4sc(-c5nn[nH]n5)cc34)cc2)cc1
97	93					O=C1NC(=S)N[C@@H]1Cc1c[nH]c2ccccc12
95				92		Cn1c(=O)c2c(ncn2C)n(C)c1=O
31	5			93		O=C(O)c1ccc(-c2c[nH]c3ncc(-c4ccccc4)cc23)cc1C1CCCC1
83	87					N#Cc1c(C2CCNCC2)cc(-c2c(O)cccc2OCC2CC2)nc1N
105	94					NC1(c2ccc(-c3nc4ccn5c(=O)[nH]nc5c4cc3-c3ccccc3)cc2)CCC1
106				99		Cc1cccc(-c2nn(C(=S)Nc3ccccc3)cc2-c2ccnc3ccccc23)n1

Source: the kinase profiling compilation of Christmann-Franck et al. (2016)
